Assay results: patent US20170001988A1, “PIPERIDINE AND PIPERAZINE DERIVATIVES AND THEIR USE IN TREATING VIRAL INFECTIONS AND CANCER” (THE UNITED STATES OF AMERICA, AS REPRESENTED BY THE …, priority 2013, published 2017)
Like-named read-outs stand apart in the source and are kept apart here.

Assays:
Huh7.5.1 cells = experiment: ATPLite cytotoxicity assay
Description: EC50 was generated using the HCV-Luc infection assay and IC50 using the ATPLite assay.
EC50 was generated using the HCV-Luc infection assay and TC50 using the ATPLite assay.
The cytotoxicity of the compounds was further evaluated in HepG2 cells and primary human hepatocytes.

HCV-Luc = HCV-Luc infection assay; assay type: cell-based; details: for EC50: Hepatitis C virus

In the case of CN1CCCN(C(c2ccccc2)c2ccc(Cl)cc2)CC1 (centres unmarked), the CC50 (Huh7.5.1 cells; Table 5) is reported as 12.8 ± 0.1 µM, the EC50 (HCV-Luc; Table 5, read-out: EC50) is reported as 0.057 ± 0.008 µM and the “Selective Index” value (HCV-Luc; Table 5) is reported as 225.
Clc1ccc(C(c2ccc(Cl)cc2)N2CCCCC2)cc1 was tested, and the CC50 (Huh7.5.1 cells; human) was 69 ± 0.9 µM, the EC50 (HCV-Luc; Table 5, read-out: EC50) was 17.4 ± 2.8 µM and the “Selective Index” value (HCV-Luc; Table 5) was 4.
Clc1ccc(C(c2ccc(Cl)cc2)N2CCOCC2)cc1 was tested, and the CC50 (Huh7.5.1 cells; human) was 62.1 ± 2.8 µM, the EC50 (HCV-Luc; Table 5, read-out: EC50) was 29.7 ± 0.1 µM and the “Selective Index” value (HCV-Luc; Table 5) was 2.
In the case of CN1CCC(N(c2ccccc2)c2ccccc2)CC1, the CC50 (Huh7.5.1 cells; human) is reported as 56.8 ± 8.2 µM, the EC50 (HCV-Luc; Table 5, read-out: EC50) is reported as 2.72 ± 1.13 µM and the “Selective Index” value (HCV-Luc; Table 5) is reported as 21.
For CN1CCC(N(c2ccccc2)c2ccc(OC(C)(C)C)cc2)CC1, the CC50 (Huh7.5.1 cells; human) was 78.7 ± 0.6 µM, the EC50 (HCV-Luc; Table 5, read-out: EC50) was 0.354 ± 0.097 µM and the “Selective Index” value (HCV-Luc; Table 5) was 222.
For c1ccc(C(c2ccccc2)C2CCNCC2)cc1, the CC50 (Huh7.5.1 cells; Table 5) was 32.5 ± 0.1 µM, the EC50 (HCV-Luc; Table 5, read-out: EC50) was 0.072 ± 0.002 µM and the “Selective Index” value (HCV-Luc; Table 5) was 451.
For c1ccc(C(c2ccccc2)c2ccncc2)cc1, the CC50 (Huh7.5.1 cells; human) was 65.1 ± 2.1 µM, the EC50 (HCV-Luc; Table 5, read-out: EC50) was over 31.5 µM and the “Selective Index” value (HCV-Luc; Table 5) was under 2.
With CCN1CCN(C2c3ccccc3-c3ccc(Br)cc32)CC1 (centres unmarked) the CC50 (Huh7.5.1 cells; human) was 53.1 ± 1.3 µM, the EC50 (HCV-Luc; Table 5, read-out: EC50) was 1.68 ± 0.45 µM and the “Selective Index” value (HCV-Luc; Table 5) was 32.
For CC(C)(C)OC(=O)NCCOCCOCCOCCOCCN1CCN(C(c2ccccc2)c2ccc(Cl)cc2)CC1 (racemic) [(CH2CH2O)4(CH2)2NHC(═O)Ot-Bu (R,S), tert-Butyl (14-(4-((4-chlorophenyl)(phenyl)methyl)piperazin-1-yl)-3,6,9,12-tetraoxatetradecyl)carbamate], the CC50 (Huh7.5.1 cells; human) was 19 ± 4 µM, the EC50 (HCV-Luc; Table 3, read-out: EC50) was 0.199 ± 0.03 µM and the “Selective Index” value (HCV-Luc; Table 3) was 95.
With CC(=O)NCCOCCOCCOCCOCCN1CCN(C(c2ccccc2)c2ccc(Cl)cc2)CC1 (racemic) [(CH2CH2O)4CH2CH2NHC(═O)Me (R,S), N-(14-(4-((4-Chlorophenyl)(phenyl)methyl)piperazin-1-yl)-3,6,9,12-tetraoxatetradecyl)acetamide] the CC50 (Huh7.5.1 cells; human) was over 100 µM, the EC50 (HCV-Luc; Table 3, read-out: EC50) was 0.17 ± 0.022 µM and the “Selective Index” value (HCV-Luc; Table 3) was over 588.
In the case of NCCOCCN1CCN(C(c2ccccc2)c2ccc(Cl)cc2)CC1 (racemic) [CH2CH2OCH2CH2NH2 (R,S), 2-(2-(4-((4-Chlorophenyl)(phenyl)methyl)piperazin-1-yl)ethoxy)ethanamine], the CC50 (Huh7.5.1 cells; human) is reported as 8.18 µM, the EC50 (HCV-Luc; Table 3, read-out: EC50) is reported as 0.0048 ± 0.0011 µM and the “Selective Index” value (HCV-Luc; Table 3) is reported as 1704.
In the case of NC(=O)COCCN1CCN(C(c2ccccc2)c2ccc(Cl)cc2)CC1 (racemic) [CH2CH2OCH2CONH2 (R,S), 2-(2-(4-((4-Chlorophenyl)(phenyl)methyl)piperazin-1-yl)ethoxy)acetamide], the CC50 (Huh7.5.1 cells; human) is reported as over 100 µM, the EC50 (HCV-Luc; Table 3, read-out: EC50) is reported as 0.103 ± 0.052 µM and the “Selective Index” value (HCV-Luc; Table 3) is reported as over 910.
Work on O=C(O)COCCN1CCN(C(c2ccccc2)c2ccc(Cl)cc2)CC1 (racemic) [CH2CH2OCH2COOH (R,S), 2-(2-(4-((4-Chlorophenyl)(phenyl)methyl)piperazin-1-yl)ethoxy) acetic acid] yielded an EC50 (HCV-Luc; Table 3, read-out: EC50) of over 31.6 µM.
COc1ccc(CN2CCN([C@@H](c3ccccc3)c3ccc(Cl)cc3)CC2)c(OC)c1 [2-4-dimethoxybenzyl (S), (S)-1-((4-Chlorophenyl)(phenyl)methyl)-4-(2,4-dimethoxybenzyl)piperazine] was tested, and the CC50 (Huh7.5.1 cells; human) was 38.4 ± 4.2 µM, the EC50 (HCV-Luc; Table 3, read-out: EC50) was 0.456 ± 0.235 µM and the “Selective Index” value (HCV-Luc; Table 3) was 84.
With [2H]C([2H])([2H])CN1CCN([C@H](c2ccccc2)c2ccc(Cl)cc2)CC1 [CD3CH2 (R), (R)-1-((4-Chlorophenyl)(phenyl)methyl)-4-ethyl(2,2,2-d3)piperazine] the CC50 (Huh7.5.1 cells; human) was 81.5 ± 0.5 µM.
[2H]C([2H])([2H])CN1CCN([C@@H](c2ccccc2)c2ccc(Cl)cc2)CC1 [CD3CH2 (S), (S)-1-((4-Chlorophenyl)(phenyl)methyl)-4-ethyl(2,2,2-d3)piperazine] showed a CC50 (Huh7.5.1 cells; human) of 71.3 ± 11.4 µM.
With OCCOCCN1CCN(C(c2ccc(Cl)cc2)c2ccc(Cl)cc2)CC1 [Cl, Cl, CH2CH2OCH2CH2OH, 2-(2-(4-(bis(4-Chlorophenyl)methyl)piperazin-1-yl)ethoxy)ethanol] the EC50 (HCV-Luc) was 0.0055 ± 0.0022 µM.
With CCN1CCN([C@H](c2ccccc2)c2ccc(Cl)cc2)CC1 [Et (R), (R)-1-((4-Chlorophenyl)(phenyl)methyl)-4-ethylpiperazine] the CC50 (Huh7.5.1 cells; human) was 37.9 ± 3.3 µM.
